Reference: patent publication US11370794B2, “Toll-like receptor antagonist compounds and methods of use” (Dynavax Technologies Corporation, priority 2016, dated 2022)
Where two headings read alike, the source gives them in different places.

Experiments:
human TLR9 = molecular target: T1, human TLR9 (Homo sapiens, UniProt Q9NR96); experiment: Inhibition of human TLR9 in human B cells (IL-6 ELISA); type: cell-based; conditions: for IC50: human B cells, agonist 1018 ISS 1 μM, IL-6 readout, 48 hours, range about 0.01 to 10 μM, read-out: Human TLR9 IC50
T1 construct: endogenous in cells; host or cells: primary human B cells (CD19 microbeads) from buffy coats of healthy donors
T1 sequence (Q9NR96 26-1032): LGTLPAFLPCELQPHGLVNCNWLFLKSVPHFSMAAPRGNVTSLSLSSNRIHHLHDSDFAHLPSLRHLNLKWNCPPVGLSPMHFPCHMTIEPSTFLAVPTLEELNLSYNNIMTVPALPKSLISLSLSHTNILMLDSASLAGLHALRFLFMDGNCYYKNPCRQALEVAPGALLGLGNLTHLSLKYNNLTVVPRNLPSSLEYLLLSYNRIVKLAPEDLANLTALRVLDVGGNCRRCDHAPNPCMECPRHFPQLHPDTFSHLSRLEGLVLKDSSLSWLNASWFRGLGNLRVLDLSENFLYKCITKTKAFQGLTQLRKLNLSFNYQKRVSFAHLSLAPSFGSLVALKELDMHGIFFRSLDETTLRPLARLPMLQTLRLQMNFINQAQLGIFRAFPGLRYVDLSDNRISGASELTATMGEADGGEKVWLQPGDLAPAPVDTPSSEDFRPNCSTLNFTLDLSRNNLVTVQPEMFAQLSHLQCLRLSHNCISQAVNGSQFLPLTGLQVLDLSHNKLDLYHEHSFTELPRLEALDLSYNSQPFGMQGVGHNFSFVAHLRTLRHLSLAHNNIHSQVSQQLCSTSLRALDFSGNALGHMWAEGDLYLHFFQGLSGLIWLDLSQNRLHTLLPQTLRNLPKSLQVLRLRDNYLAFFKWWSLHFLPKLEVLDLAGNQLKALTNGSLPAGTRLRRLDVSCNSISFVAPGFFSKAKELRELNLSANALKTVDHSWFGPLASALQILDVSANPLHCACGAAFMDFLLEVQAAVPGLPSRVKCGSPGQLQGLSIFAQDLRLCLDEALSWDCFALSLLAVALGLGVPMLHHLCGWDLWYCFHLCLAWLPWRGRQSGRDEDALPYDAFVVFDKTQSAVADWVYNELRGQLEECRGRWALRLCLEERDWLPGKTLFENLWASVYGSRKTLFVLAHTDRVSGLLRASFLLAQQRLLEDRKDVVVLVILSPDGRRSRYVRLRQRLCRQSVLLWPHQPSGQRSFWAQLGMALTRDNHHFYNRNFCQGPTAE
In short: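 Primary human B cells (CD19-isolated from donor buffy coats), ~300,000 per well, treated with compound (about 0.01–10 μM, some 0.001–30 μM) then 1 μM CpG oligonucleotide 1018 ISS. After 48 hours at 37° C, supernatant IL-6 measured by ELISA; IC50 from concentration-response of TLR9-dependent activity.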

human TLR8 = molecular target: T2, human TLR8 (Homo sapiens, UniProt Q9NR97); experiment: Inhibition of human TLR8 in human monocytes (TNF-alpha / IL-1 beta ELISA); type: cell-based; conditions: human monocytes, agonist ORN8L 100 μg/mL, 24 hours
T2 construct: endogenous in cells; host or cells: primary human monocytes (CD14 microbeads) from buffy coats of healthy donors
T2 sequence (Q9NR97 27-1041): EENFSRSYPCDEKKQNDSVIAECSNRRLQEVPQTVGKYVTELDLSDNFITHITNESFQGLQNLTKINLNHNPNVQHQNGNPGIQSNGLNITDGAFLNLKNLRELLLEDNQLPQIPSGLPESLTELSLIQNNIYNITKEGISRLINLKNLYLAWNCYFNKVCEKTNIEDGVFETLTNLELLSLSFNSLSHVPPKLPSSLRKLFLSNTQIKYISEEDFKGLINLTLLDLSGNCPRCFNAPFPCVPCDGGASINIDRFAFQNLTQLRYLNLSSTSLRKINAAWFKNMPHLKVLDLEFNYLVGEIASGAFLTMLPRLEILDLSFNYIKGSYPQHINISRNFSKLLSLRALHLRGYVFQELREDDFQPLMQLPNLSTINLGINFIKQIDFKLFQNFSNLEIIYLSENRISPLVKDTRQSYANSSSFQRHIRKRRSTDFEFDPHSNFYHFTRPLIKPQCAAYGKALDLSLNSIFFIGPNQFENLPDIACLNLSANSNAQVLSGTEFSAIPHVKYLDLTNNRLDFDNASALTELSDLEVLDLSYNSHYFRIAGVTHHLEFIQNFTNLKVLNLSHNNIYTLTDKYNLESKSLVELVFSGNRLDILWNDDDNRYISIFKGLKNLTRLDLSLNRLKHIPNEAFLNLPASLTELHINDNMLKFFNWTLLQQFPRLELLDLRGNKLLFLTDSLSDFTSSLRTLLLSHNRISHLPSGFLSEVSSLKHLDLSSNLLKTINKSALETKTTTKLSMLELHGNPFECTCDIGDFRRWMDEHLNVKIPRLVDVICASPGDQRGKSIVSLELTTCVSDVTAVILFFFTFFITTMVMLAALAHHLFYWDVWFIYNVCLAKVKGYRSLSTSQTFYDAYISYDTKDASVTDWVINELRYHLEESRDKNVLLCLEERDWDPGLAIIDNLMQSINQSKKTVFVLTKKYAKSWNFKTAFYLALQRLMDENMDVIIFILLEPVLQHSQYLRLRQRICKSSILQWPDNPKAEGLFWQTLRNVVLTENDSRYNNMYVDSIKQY
In short: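 Primary human monocytes from donor buffy coats (~200,000 cells/well) given serially diluted compound, then ORN8L RNA oligonucleotide agonist at 100 μg/mL final. After 24 h at 37 °C, supernatant TNF-alpha and/or IL-1 beta measured by ELISA; IC50 from the concentration-response of cytokine release.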

[1] = TNF-alpha readout, read-out: Human TLR8 IC50 TNF-a
[2] = IL-1 beta readout, read-out: Human TLR8 IC50 IL-1b

| IC50 (human TLR9) | IC50 (human TLR8; [1]) | IC50 (human TLR8; [2]) | inhibits TLR9-dependent responses (in words) (human TLR9; summary statement of the description) | SMILES |
| --- | --- | --- | --- | --- |
| 0.118 µM | 11.7 µM | – | – | Cc1ccc(-n2nc3c(N4CCN(C(=O)NCCCN(C)C)CC4)nnc(C)c3c2C)cc1 [Compound No. 76, 4-(3,4-dimethyl-2-(p-tolyl)-2H-pyrazolo[3,4-d]pyridazin-7-yl)-N-(3-(dimethylamino)propyl)piperazine-1-carboxamide] |
| > 10 µM | > 10 µM | > 10 µM | – | Cc1ccc(-n2nc3c(N4CCC(C(=O)N5CCOCC5)CC4)nnc(C)c3c2C)cc1 [2-3] |
| 0.427 µM | > 10 µM | > 10 µM | – | Cc1ccc(-n2nc3c(N4CCC(C(=O)NCCCCCc5ccccc5)CC4)nnc(C)c3c2C)cc1 [2-12] |
| 0.25 µM | > 10 µM | > 10 µM | – | Cc1ccc(-n2nc3c(N4CC(C(=O)NCCCN(C)C)C4)nnc(C)c3c2C)cc1 [compound 15, 1-(3,4-dimethyl-2-(p-tolyl)-2H-pyrazolo[3,4-d]pyridazin-7-yl)-N-(3-(dimethylamino)propyl)azetidine-3-carboxamide] |
| 0.007 µM | > 10 µM | 1.61 µM | inhibit | Cc1ccc(-n2cc3cnnc(N4CCC(C(=O)NCCCN(C)C)CC4)c3n2)cc1 [Compound No. 29, N-(3-(dimethylamino)propyl)-1-(2-(p-tolyl)-2H-pyrazolo[3,4-d]pyridazin-7-yl)piperidine-4-carboxamide] |
| 0.026 µM | 0.226 µM | – | – | CCN1CCN(C(=O)C2CCN(c3nncc4cn(-c5ccc(C)cc5)nc34)CC2)CC1 [compound 40, (4-ethylpiperazin-1-yl)(1-(2-(p-tolyl)-2H-pyrazolo[3,4-d]pyridazin-7-yl)piperidin-4-yl)methanone] |
| 0.025 µM | ≥ 20 µM | – | – | Cc1ccc(-n2nc3c(N4CCC(C(=O)N5CCC6(CN(C)C6)C5)CC4)nnc(C)c3c2C)cc1 [compound 75, (1-(3,4-dimethyl-2-(p-tolyl)-2H-pyrazolo[3,4-d]pyridazin-7-yl)piperidin-4-yl)(2-methyl-2,6-diazaspiro[3.4]octan-6-yl)methanone] |
| > 10 µM | ≥ 20 µM | – | – | Cc1nnc(N2CCC(C(=O)NCCCN(C)C)CC2)c2nn(C(C)C)c(C)c12 [compound 27, N-(3-(dimethylamino)propyl)-1-(2-isopropyl-3,4-dimethyl-2H-pyrazolo[3,4-d]pyridazin-7-yl)piperidine-4-carboxamide] |
| 0.071 µM | > 10 µM | > 10 µM | – | Cc1ccc(-n2nc3c(N4CCC(C(=O)N[C@H]5C[C@H](N(C)C)C5)CC4)nnc(C)c3c2C)cc1 [Compound No. 12a, 1-(3,4-dimethyl-2-(p-tolyl)-2H-pyrazolo[3,4-d]pyridazin-7-yl)-N-((1r,3r)-3-(dimethylamino)cyclobutyl)piperidine-4-carboxamide] |
| 0.083 µM | > 10 µM | > 10 µM | – | Cc1ccc(-n2nc3c(N4CCC(C(=O)NC5CCN(C)C5)CC4)nnc(C)c3c2C)cc1 (stereo not shown) [compound 17, 1-(3,4-dimethyl-2-(p-tolyl)-2H-pyrazolo[3,4-d]pyridazin-7-yl)-N-(1-methylpyrrolidin-3-yl)piperidine-4-carboxamide] |
| > 10 µM | ≥ 20 µM | – | – | Cc1nnc(N2CCC(C(=O)NCCCN(C)C)CC2)c2nn(-c3cccnc3)c(C)c12 [compound 23, 1-(3,4-dimethyl-2-(pyridin-3-yl)-2H-pyrazolo[3,4-d]pyridazin-7-yl)-N-(3-(dimethylamino)propyl)piperidine-4-carboxamide] |
| 0.368 µM | > 10 µM | > 10 µM | – | CCN(CC)CCCNC(=O)C1CCN(c2nnc(C)c3c(C)n(-c4ccccc4)nc23)CC1 [7x, N-(3-(diethylamino)propyl)-1-(3,4-dimethyl-2-phenyl-2H-pyrazolo[3,4-d]pyridazin-7-yl)piperidine-4-carboxamide] |
| 9.37 µM | ≥ 20 µM | – | – | CNC(=O)C1CCN(c2nnc(C)c3c(C)n(-c4ccc(C)cc4)nc23)C1 (stereo not shown) [compound 57, 1-(3,4-dimethyl-2-(p-tolyl)-2H-pyrazolo[3,4-d]pyridazin-7-yl)-N-methylpyrrolidine-3-carboxamide] |
